Experimental data as given in patent US20230278983A1, “INDOLE DERIVATIVES AND USES THEREOF FOR TREATING A CANCER” (Universite Claude Bernard Lyon 1, priority 2020, published 2023).

Molecular target: CK2 (Homo sapiens (Human), UniProt P68400)
Test: Radiometric CK2 kinase assay
Type: biochemical
Details: not given

Sequence of CK2 (P68400 whole entry): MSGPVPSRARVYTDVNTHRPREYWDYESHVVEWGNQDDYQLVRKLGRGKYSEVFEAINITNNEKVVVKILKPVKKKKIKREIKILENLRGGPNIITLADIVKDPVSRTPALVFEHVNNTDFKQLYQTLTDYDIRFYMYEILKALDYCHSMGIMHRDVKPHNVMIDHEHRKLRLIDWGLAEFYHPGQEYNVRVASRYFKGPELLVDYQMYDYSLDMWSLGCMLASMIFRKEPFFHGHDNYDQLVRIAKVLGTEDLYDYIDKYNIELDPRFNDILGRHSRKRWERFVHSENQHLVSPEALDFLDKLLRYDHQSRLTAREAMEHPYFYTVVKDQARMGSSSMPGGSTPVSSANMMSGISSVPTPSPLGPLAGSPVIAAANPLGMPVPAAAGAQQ

SMILES | IC50 [nM]
CC(C)COC(=O)c1[nH]c2ccc(Cl)cc2c1-c1cn(CC2CCN(CCNS(=O)(=O)c3ccc(C(F)(F)F)cc3)CC2)nn1 [AB601, Isobutyl 5-chloro-3-(1-((1-(2-((4-(trifluoromethyl)phenyl)sulfonamido)ethyl)piperidin-4-yl)methyl)-1H-1,2,3-triazol-4-yl)-1H-indole-2-carboxylate] | 1400
CCOC(=O)c1[nH]c2ccc(Cl)cc2c1-c1cn(CC2CCN(CCNS(=O)(=O)c3ccc(Cl)cc3)CC2)nn1 [AB460, Ethyl 5-chloro-3-(1-((1-(2-((4-chlorophenyl)sulfonamido)ethyl)piperidin-4-yl)methyl)-1H-1,2,3-triazol-4-yl)-1H-indole-2-carboxylate] | 2510
O=S(=O)(NCCN1CCC(Cn2cc(-c3c[nH]c4ccc(F)cc34)nn2)CC1)c1ccc(Cl)cc1 [AB153, 4-Chloro-N-(2-(4-((4-(5-fluoro-1H-indol-3-yl)-1H-1,2,3-triazol-1-yl)methyl)piperidin-1-yl)ethyl)benzenesulfonamide] | 15100
CCOC(=O)c1[nH]c2ccc(F)cc2c1-c1cn(CC2CCN(CCNS(=O)(=O)c3ccc(Cl)cc3)CC2)nn1 [AB401, Ethyl 3-(1-((1-(2-((4-chlorophenyl)sulfonamido)ethyl)piperidin-4-yl)methyl)-1H-1,2,3-triazol-4-yl)-5-fluoro-1H-indole-2-carboxylate] | 980
CCOC(=O)c1[nH]c2ccc(F)cc2c1-c1cn(CC2CCN(CCNS(=O)(=O)c3ccc(C)cc3)CC2)nn1 [AB504, Ethyl 5-fluoro-3-(1-((1-(2-((4-methylphenyl)sulfonamido)ethyl)piperidin-4-yl)methyl)-1H-1,2,3-triazol-4-yl)-1H-indole-2-carboxylate] | 1800
Cc1noc(C)c1-c1ccc(S(=O)(=O)NCCN2CCC(Cn3cc(-c4c(C(=O)C5CC5)[nH]c5ccc(F)cc45)nn3)CC2)cc1 [AB1285, N-(2-(4-((4-(2-(cyclopropanecarbonyl)-5-fluoro-1H-indol-3-yl)-1H-1,2,3-triazol-1-yl)methyl)piperidin-1-yl)ethyl)-4-(3,5-dimethylisoxazol-4-yl)benzenesulfonamide] | 930
CC(C)COC(=O)c1[nH]c2ccc(F)cc2c1-c1cn(CC2CCN(CCNS(=O)(=O)c3ccc(C(F)(F)F)cc3)CC2)nn1 [AB600, Isobutyl 5-fluoro-3-(1-((1-(2-((4-(trifluoromethyl)phenyl)sulfonamido)ethyl)piperidin-4-yl)methyl)-1H-1,2,3-triazol-4-yl)-1H-indole-2-carboxylate] | 350
CCOC(=O)c1[nH]c2ccc(F)cc2c1-c1cn(CC2CCN(CCNS(=O)(=O)c3ccc4ccccc4c3)CC2)nn1 [AB536, Ethyl 5-fluoro-3-(1-((1-(2-(naphthalene-2-sulfonamido)ethyl)piperidin-4-yl)methyl)-1H-1,2,3-triazol-4-yl)-1H-indole-2-carboxylate] | 800
CC(=O)c1[nH]c2ccc(F)cc2c1-c1cn(CC2CCN(CCNS(=O)(=O)c3ccc(-c4c(C)noc4C)cc3)CC2)nn1 [AB1286, N-(2-(4-((4-(2-acetyl-5-fluoro-1H-indol-3-yl)-1H-1,2,3-triazol-1-yl)methyl)piperidin-1-yl)ethyl)-4-(3,5-dimethylisoxazol-4-yl)benzenesulfonamide] | 430
CC(C)COC(=O)c1[nH]c2ccc(F)cc2c1-c1cn(CC2CCN(CCNS(=O)(=O)c3ccc(C(C)(C)C)cc3)CC2)nn1 [AB934, isobutyl 3-(1-((1-(2-((4-(tert-butyl)phenyl)sulfonamido)ethyl)piperidin-4-yl)methyl)-1H-1,2,3-triazol-4-yl)-5-fluoro-1H-indole-2-carboxylate] | 52
CC(C)COC(=O)c1[nH]c2ccc(F)cc2c1-c1cn(CC2CCN(CCNS(=O)(=O)c3ccc(OC(C)C)cc3)CC2)nn1 [AB917, isobutyl 5-fluoro-3-(1-((1-(2-((4-isopropoxyphenyl)sulfonamido)ethyl)piperidin-4-yl)methyl)-1H-1,2,3-triazol-4-yl)-1H-indole-2-carboxylate] | 600

Same assay, conditions: compound at 0.05 μM; ATP 10 μM

SMILES | inhibition at 0.05 µM [%]
COc1ccccc1-c1ccc(S(=O)(=O)NCCN2CCC(Cn3cc(-c4c(C(=O)OCC(C)C)[nH]c5ccc(F)cc45)nn3)CC2)cc1 [AB1205, isobutyl 5-fluoro-3-(1-((1-(2-((2′-methoxy-[1,1′-biphenyl])-4-sulfonamido)ethyl)piperidin-4-yl)methyl)-1H-1,2,3-triazol-4-yl)-1H-indole-2-carboxylate] | 59

Same assay, conditions: compound at 0.10 μM; ATP 10 μM

SMILES | inhibition at 0.1 µM [%]
CC(C)Cc1ccc(S(=O)(=O)NCCN2CCC(Cn3cc(-c4c(C(=O)c5cccnc5)[nH]c5ccc(F)cc45)nn3)CC2)cc1 [AB1301, N-(2-(4-((4-(5-fluoro-2-nicotinoyl-1H-indol-3-yl)-1H-1,2,3-triazol-1-yl)methyl)piperidin-1-yl)ethyl)-4-isobutylbenzenesulfonamide] | 3
CC(=O)c1[nH]c2ccc(F)cc2c1-c1cn(CC2CCN(CCNS(=O)(=O)Cc3ccc(C(F)(F)F)cc3)CC2)nn1 [AB1315, N-(2-(4-((4-(2-acetyl-5-fluoro-1H-indol-3-yl)-1H-1,2,3-triazol-1-yl)methyl)piperidin-1-yl)ethyl)-1-(4-(trifluoromethyl)phenyl)methanesulfonamide] | 27
CC(C)C(=O)c1[nH]c2ccc(F)cc2c1-c1cn(CC2CCN(CCNS(=O)(=O)c3ccc(-c4cccnc4Cl)cc3)CC2)nn1 [AB1282, 4-(2-chloropyridin-3-yl)-N-(2-(4-((4-(5-fluoro-2-isobutyryl-1H-indol-3-yl)-1H-1,2,3-triazol-1-yl)methyl)piperidin-1-yl)ethyl)benzenesulfonamide] | 15
CC(=O)c1[nH]c2ccc(F)cc2c1-c1cn(CC2CCN(CCNS(=O)(=O)c3ccc(-c4ccccc4F)cc3)CC2)nn1 [AB1390, N-(2-(4-((4-(2-acetyl-5-fluoro-1H-indol-3-yl)-1H-1,2,3-triazol-1-yl)methyl)piperidin-1-yl)ethyl)-2′-fluoro-[1,1′-biphenyl]-4-sulfonamide] | 36
CC(C)CC(=O)c1[nH]c2ccc(F)cc2c1-c1cn(CC2CCN(CCNS(=O)(=O)c3ccc(-c4cccnc4Cl)cc3)CC2)nn1 [AB1284, 4-(2-chloropyridin-3-yl)-N-(2-(4-((4-(5-fluoro-2-(3-methylbutanoyl)-1H-indol-3-yl)-1H-1,2,3-triazol-1-yl)methyl)piperidin-1-yl)ethyl)benzenesulfonamide] | 15

Same assay, conditions: compound at 1 μM; ATP 10 μM

SMILES | inhibition at 1 µM [%]
CC(C)COC(=O)c1[nH]c2ccc(F)cc2c1-c1cn(CC2CCN(Cc3ccc(-c4cccc5[nH]ccc45)c(C(C)C)c3)CC2)nn1 [AB703, Isobutyl 3-(1-((1-(4-(1H-indol-4-yl)-3-isopropylbenzyl)piperidin-4-yl)methyl)-1H-1,2,3-triazol-4-yl)-5-fluoro-1H-indole-2-carboxylate] | 8
COCc1ccccc1-c1ccc(C(=O)N2CCC(Cn3cc(-c4c(C(=O)OCC(C)C)[nH]c5ccc(F)cc45)nn3)CC2)cc1Cl [AB681, Isobutyl 3-(1-((1-(2-chloro-2′-(methoxymethyl)-[1,1′-biphenyl]-4-carbonyl)piperidin-4-yl)methyl)-1H-1,2,3-triazol-4-yl)-5-fluoro-1H-indole-2-carboxylate] | 18
CC(C)COC(=O)c1[nH]c2ccc(F)cc2c1-c1cn(CC2CCN(Cc3ccc(Oc4ccccc4)c(Cl)c3)CC2)nn1 [AB691, Isobutyl 3-(1-((1-(3-chloro-4-phenoxybenzyl)piperidin-4-yl)methyl)-1H-1,2,3-triazol-4-yl)-5-fluoro-1H-indole-2-carboxylate] | 3
CC(C)CCOC(=O)c1[nH]c2ccc(F)cc2c1-c1cn(CC2CCN(CCNS(=O)(=O)c3ccc(CC(C)C)cc3)CC2)nn1 [AB669, Isopentyl 5-fluoro-3-(1-((1-(2-((4-isobutylphenyl)sulfonamido)ethyl)piperidin-4-yl)methyl)-1H-1,2,3-triazol-4-yl)-1H-indole-2-carboxylate] | 32
CC(C)COC(=O)c1[nH]c2ccc(F)cc2c1-c1cn(CC2CCN(S(=O)(=O)c3ccc4c(c3)OCC4)CC2)nn1 [AB939, isobutyl 3-(1-((1-((2,3-dihydrobenzofuran-6-yl)sulfonyl)piperidin-4-yl)methyl)-1H-1,2,3-triazol-4-yl)-5-fluoro-1H-indole-2-carboxylate] | 4

Same assay, conditions: inhibition of CK2 activity; ATP 10 μM

SMILES | IC50 [nM]
CC(C)COC(=O)c1[nH]c2ccc(F)cc2c1-c1cn(CC2CCN(CCNS(=O)(=O)Cc3ccc(Br)cc3)CC2)nn1 [AB1030, isobutyl 3-(1-((1-(2-(((4-bromophenyl)methyl)sulfonamido)ethyl)piperidin-4-yl)methyl)-1H-1,2,3-triazol-4-yl)-5-fluoro-1H-indole-2-carboxylate] | 54
CCc1ccc(S(=O)(=O)NCCN2CCC(Cn3cc(-c4c(C(=O)OCCN)[nH]c5ccc(F)cc45)nn3)CC2)cc1 [AB614, 2-Aminoethyl 3-(1-((1-(2-((4-ethylphenyl)sulfonamido)ethyl)piperidin-4-yl)methyl)-1H-1,2,3-triazol-4-yl)-5-fluoro-1H-indole-2-carboxylate] | 3240
O=C(O)c1[nH]c2cc(Cl)ccc2c1-c1cn(CC2CCN(CCNS(=O)(=O)c3ccc(Cl)cc3)CC2)nn1 [AB202, 6-Chloro-3-(1-((1-(2-((4-chlorophenyl)sulfonamido)ethyl)piperidin-4-yl)methyl)-1H-1,2,3-triazol-4-yl)-1H-indole-2-carboxylic acid] | 12100
CC(C)Cc1ccc(S(=O)(=O)NCCN2CCC(Cn3cc(-c4c(C=O)[nH]c5ccc(F)cc45)nn3)CC2)cc1 [AB1235, N-(2-(4-((4-(5-fluoro-2-formyl-1H-indol-3-yl)-1H-1,2,3-triazol-1-yl)methyl)piperidin-1-yl)ethyl)-4-isobutylbenzenesulfonamide] | 90
O=C(c1[nH]c2ccc(F)cc2c1-c1cn(CC2CCN(CCNS(=O)(=O)N3CCC(c4c(F)cccc4F)CC3)CC2)nn1)C1CC1 [AB1304, N-(2-(4-((4-(2-(cyclopropanecarbonyl)-5-fluoro-1H-indol-3-yl)-1H-1,2,3-triazol-1-yl)methyl)piperidin-1-yl)ethyl)-4-(2,6-difluorophenyl)piperidine-1-sulfonamide] | 500
